This is an account of results in patent US8455649B2, “Insecticidal substituted azinyl derivatives” (Dow AgroSciences, LLC, priority 2007, dated 2013).

The test system of assay [1] is Corn Earworm (Helicoverpa zea). Kind of assay: Insecticidal diet-surface test for corn earworm. Format: in vivo. The note with it: 120 h, read-out: HELIZE AVG % Mortality (50 μg/cm^2). An outline of the steps:
(§1)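 Second-instar larvae placed on lepidopteran diet surface-treated with 50 μL of 2000 ppm compound in 9 acetone:1 water (stated as 50 μg/cm^2), eight wells per species. Held 5 days at 25° C, 50-55% RH, 16:8 h light:dark; mortality of 8 larvae scored as percent control.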

In assay [2] the test system is Beet Armyworm (Spodoptera exigua). Briefly: Insecticidal diet-surface test for beet armyworm. Format: in vivo. The note with it: 120 h, second-instar larvae on treated diet, 50 μg/cm^2 on diet surface, 5 days after treatment, 8 insects per treatment, read-out: LAPHEG AVG % Mortality (50 μg/cm^2). In short, it runs like this: as §1
The mark [3] stands for this setting: second-instar larvae on treated diet, 50 μg/cm^2 on diet surface, 5 days after treatment, 8 insects per treatment.

Where two headings read alike, the source gives them in different places.

As for `N#Cc1ccc(NC(=O)Nc2nc(OCC(F)(F)F)cc(OCC(F)(F)F)n2)nc1` [Compound 127], the mortality at 50 µg/cm2 amounted to 100% in assay [1] (setting [3]) and 0% in assay [2].

As for `CC(C)OCN(C(=O)Nc1nc(OCC(F)(F)F)cc(OCC(F)(F)F)n1)c1ccc(C(F)(F)F)cc1` [Compound 53], the mortality at 50 µg/cm2 in assay [1] (setting [3]) and in assay [2] was 100% throughout.

For the compound `O=C(Nc1nc(OCC(F)(F)F)cc(OCC(F)(F)F)n1)N(O)c1ccc(Cl)cc1` [Compound 64, N′-[4,6-bis(2,2,2-trifluoroethoxy)pyrimidin-2-yl]-N-(4chlorophenyl)-N-hydroxyurea], the mortality at 50 µg/cm2 in assay [1] (setting [3]) and in assay [2] was 100% each time.

Turning to `CN(C(=O)Nc1cc(OCC(F)(F)F)nc(OCC(F)(F)F)n1)c1ccc(Cl)cc1` [Compound 112], the values for the mortality at 50 µg/cm2 in assay [1] (setting [3]) and in assay [2] were 100% and 50%, respectively.

`CN(C(=O)Nc1nc(OCC(F)(F)C(F)F)cc(OCC(F)(F)C(F)F)n1)c1ccc(C(F)(F)F)cc1` [Compound 177]: the mortality at 50 µg/cm2 in assay [1] (setting [3]) and in assay [2] was 100% throughout.

For `CN(C(=O)Nc1nc(OCC(F)(F)F)cc(OCC(F)(F)F)n1)c1ccc(F)cc1F` [Compound 150], the mortality at 50 µg/cm2 in assay [1] (setting [3]) was found to be 75%; in assay [2], 100%.

Regarding `CN(C(=O)Nc1nc(OCC(F)(F)F)cc(OCC(F)(F)F)n1)c1ccc(C(F)(F)F)c(Cl)c1` [Compound 153], the mortality at 50 µg/cm2 in assay [1] (setting [3]) and in assay [2] was 100% in each case.

Turning to `O=C(Nc1ccc(Cl)nc1)Nc1nc(OCC(F)(F)F)cc(OCC(F)(F)F)n1` [Compound 49], the mortality at 50 µg/cm2 in assay [1] (setting [3]) and in assay [2] was 100% throughout.

Take `CN(C(=O)Nc1nc(OCC(F)(F)F)cc(OCC(F)(F)F)n1)c1ccc(C(F)(F)F)cn1` [Compound 122]: the results for the mortality at 50 µg/cm2 in assay [1] (setting [3]) and in assay [2] were 88% and 100%, respectively.

Take `CN(C(=O)Nc1nc(OCC(F)(F)F)cc(OCC(F)(F)F)n1)c1ccc(SC(F)(F)F)cc1` [Compound 80]: the mortality at 50 µg/cm2 in assay [1] (setting [3]) and in assay [2] was 100% in each case.

For `CCOc1cc(OCC(F)(F)F)nc(NC(=O)N(C)c2ccc(Br)cc2)n1` [Compound 103, N-(4-bromophenyl)-N′-[4-ethoxy-6-(2,2,2-trifluoroethoxy)-pyrimidin-2-yl]-N-methylurea], the results for the mortality at 50 µg/cm2 in assay [1] (setting [3]) and in assay [2] were 100% and 25%, respectively.

As for `O=C(Nc1ccc(Br)nc1)Nc1cc(C(F)(F)F)cc(OCC(F)(F)F)n1` [Compound 171], the mortality at 50 µg/cm2 in assay [1] (setting [3]) and in assay [2] was 100% each time.

Take `O=C1CN(c2ccc(OC(F)(F)F)cc2)C(=O)N1c1nc(OCC(F)(F)F)cc(OCC(F)(F)F)n1` [Compound 30]: the results for the mortality at 50 µg/cm2 in assay [1] (setting [3]) and in assay [2] were 100% and 88%, respectively.

With `CON(C(=O)Nc1nc(OCC(F)(F)F)cc(OCC(F)(F)F)n1)c1ccc(Cl)cc1` [Compound 65, N′-[4,6-bis(2,2,2-trifluoroethoxy)pyrimidin-2-yl]-N-(4-chlorophenyl)-N-methoxyurea], the mortality at 50 µg/cm2 in assay [1] (setting [3]) and in assay [2] was 100% throughout.

Turning to `CCOC(=O)N(C(=O)N(COCc1ccccc1)c1nc(OCC(F)(F)F)cc(OCC(F)(F)F)n1)c1ccc(C(F)(F)F)cc1` [Compound 36], the mortality at 50 µg/cm2 in assay [1] and in assay [2] was 100% throughout.

On to `O=C(Nc1ccc(C(F)(F)F)cc1)Nc1nc(Cl)cc(OCC(F)(F)F)n1` [Compound 97], for which the mortality at 50 µg/cm2 in assay [1] (setting [3]) and in assay [2] was 100% each time.

As to `CN(C(=O)Nc1nc(OCC(F)(F)F)c(Cl)c(OCC(F)(F)F)n1)c1ccc(OC(F)(F)F)cc1` [Compound 138], the mortality at 50 µg/cm2 in assay [1] (setting [3]) and in assay [2] was 100% throughout.

As to `CC(C)N(C(=O)Nc1nc(OCC(F)(F)F)cc(OCC(F)(F)F)n1)c1ccc(OC(F)(F)F)cc1` [Compound 69], the mortality at 50 µg/cm2 in assay [1] (setting [3]) and in assay [2] was 100% each time.

In the case of `CN(C(=O)Nc1cc(OCC(F)(F)F)nc(OCC(F)(F)F)n1)c1ccc(C(F)(F)F)cc1` [Compound 107], the mortality at 50 µg/cm2 in assay [1] (setting [3]) and in assay [2] was 100% in each case.

As for `O=C(Nc1ccc(Br)cc1)Nc1nc(OCC(F)(F)F)cc(OCC(F)(F)F)n1` [Compound 22], the mortality at 50 µg/cm2 in assay [1] (setting [3]) and in assay [2] was 100% in each case.

As for `CN(C(=O)Nc1nc(OCC(F)(F)F)cc(OCC(F)(F)F)n1)c1ccc(OC(F)(F)C(F)F)cc1` [Compound 29], the mortality at 50 µg/cm2 in assay [1] (setting [3]) and in assay [2] was 100% in each case.

On to `O=C(Nc1ccc(Cl)c(Cl)c1)Nc1nc(OCC(F)(F)F)cc(OCC(F)(F)F)n1` [Compound 5], for which the values for the mortality at 50 µg/cm2 in assay [1] (setting [3]) and in assay [2] were 50% and 25%, respectively.

As to `O=C(Nc1ccc(C(F)(F)F)cc1)Nc1cc(C(F)(F)F)cc(OCC(F)(F)F)n1` [Compound 164], the mortality at 50 µg/cm2 turned out to be 100% in assay [1] (setting [3]) and 88% in assay [2].

For the compound `CN(C(=O)Nc1nc(OCC(F)(F)F)cc(OCC(F)(F)F)n1)c1ccc(Br)cc1C(F)(F)F` [Compound 155], the mortality at 50 µg/cm2 in assay [1] (setting [3]) was 100%; in assay [2] it was 50%.

For the compound `COC(=O)c1ccc(N(C)C(=O)Nc2nc(OCC(F)(F)F)cc(OCC(F)(F)F)n2)cc1` [Compound 82], the mortality at 50 µg/cm2 in assay [1] (setting [3]) was 0%; in assay [2], 100%.

With `COCN(C(=O)Nc1nc(OCC(F)(F)F)cc(OCC(F)(F)F)n1)c1ccc(C(F)(F)F)cc1` [Compound 39], the mortality at 50 µg/cm2 in assay [1] (setting [3]) and in assay [2] was 100% each time.

As for `O=C(Nc1ccc(C(F)(F)F)cc1)Nc1cc(OCC(F)(F)F)nc(OCC(F)(F)F)n1` [Compound 105], the mortality at 50 µg/cm2 amounted to 0% in assay [1] (setting [3]) and 100% in assay [2].

For the compound `CN(C(=O)Nc1nc(OCC(F)(F)F)cc(OCC(F)(F)F)n1)c1ccc(I)cn1` [Compound 126], the mortality at 50 µg/cm2 in assay [1] (setting [3]) and in assay [2] was 100% each time.

Consider `FC(F)(F)COc1cc(OCC(F)(F)F)nc(NC(=S)Nc2ccc(Br)cc2)n1` [Compound 129], for which the mortality at 50 µg/cm2 in assay [1] (setting [3]) and in assay [2] was 100% each time.

On to `COCN(C(=O)Nc1nc(OCC(F)(F)F)cc(OCC(F)(F)F)n1)c1ccc(OC(F)(F)F)cc1` [Compound 45], for which the mortality at 50 µg/cm2 in assay [1] (setting [3]) and in assay [2] was 100% throughout.

Take `CN(C(=O)Nc1nc(OCC(F)(F)C(F)(F)F)cc(OCC(F)(F)C(F)(F)F)n1)c1ccc(C(F)(F)F)cc1` [Compound 176]: the mortality at 50 µg/cm2 in assay [1] (setting [3]) and in assay [2] was 100% in each case.

As to `CN(C(=O)Nc1nc(OCC(F)(F)F)cc(OCC(F)(F)F)n1)c1ccc(Cl)cc1Cl` [Compound 149], the mortality at 50 µg/cm2 in assay [1] (setting [3]) and in assay [2] was 100% each time.

Regarding `O=C(Nc1ccc(SC(F)(F)F)cc1)Nc1nc(OCC(F)(F)F)cc(OCC(F)(F)F)n1` [Compound 58], the mortality at 50 µg/cm2 in assay [1] (setting [3]) and in assay [2] was 100% each time.

`Cc1c(OCC(F)(F)F)nc(NC(=O)N(C)c2ccc(OC(F)(F)F)cc2)nc1OCC(F)(F)F` [Compound 142]: the mortality at 50 µg/cm2 in assay [1] (setting [3]) and in assay [2] was 100% each time.

Turning to `O=C(Nc1nc(OCC(F)(F)F)cc(OCC(F)(F)F)n1)N(c1ccc(C(F)(F)F)cc1)C1CC1` [Compound 156], the mortality at 50 µg/cm2 in assay [1] (setting [3]) and in assay [2] was 100% throughout.

As for `CN(C(=O)Nc1cc(C(F)(F)F)cc(OCC(F)(F)F)n1)c1ccc(OC(F)(F)F)cc1` [Compound 168], the mortality at 50 µg/cm2 in assay [1] (setting [3]) and in assay [2] was 100% in each case.

In the case of `CCCN(C(=O)Nc1nc(OCC(F)(F)F)cc(OCC(F)(F)F)n1)c1ccc(OC(F)(F)F)cc1` [Compound 26], the mortality at 50 µg/cm2 in assay [1] (setting [3]) and in assay [2] was 100% throughout.

Regarding `CN(C(=O)Nc1nc(OCC(F)(F)F)cc(OCC(F)(F)F)n1)c1ccc(Br)cc1` [Compound 41, N′-[4,6-bis(2,2,2-trifluoroethoxy)pyrimidin-2-yl]-N-methyl-N-(4-bromophenyl)urea], the mortality at 50 µg/cm2 in assay [1] (setting [3]) and in assay [2] was 100% each time.

In the case of `Cc1c(OCC(F)(F)F)nc(NC(=O)N(C)c2ccc(C(F)(F)F)cc2)nc1OCC(F)(F)F` [Compound 141], the mortality at 50 µg/cm2 in assay [1] (setting [3]) and in assay [2] was 100% throughout.

Regarding `CN(C(=O)Nc1nc(OCC(F)(F)F)cc(OCC(F)(F)F)n1)c1ccc(Cl)cn1` [Compound 124], the mortality at 50 µg/cm2 in assay [1] (setting [3]) and in assay [2] was 100% each time.

For `COCCOCN(C(=O)N(COCc1ccccc1)c1nc(OCC(F)(F)F)cc(OCC(F)(F)F)n1)c1ccc(C(F)(F)F)cc1` [Compound 52], the mortality at 50 µg/cm2 in assay [1] (setting [3]) and in assay [2] was 100% in each case.

Turning to `O=C(Nc1ccc(C(F)(F)F)nc1)Nc1nc(OCC(F)(F)F)c(Cl)c(OCC(F)(F)F)n1` [Compound 135], the mortality at 50 µg/cm2 in assay [1] (setting [3]) and in assay [2] was 100% each time.

On to `O=C(Nc1ccc(Br)cc1)Nc1cc(C(F)(F)F)cc(OCC(F)(F)F)n1` [Compound 166], for which the mortality at 50 µg/cm2 in assay [1] (setting [3]) and in assay [2] was 100% in each case.

`CN(C(=O)N(C)c1nc(OCC(F)(F)F)cc(OCC(F)(F)F)n1)c1ccc(OC(F)(F)F)cc1` [Compound 11, N-[4,6-bis(2,2,2-trifluoroethoxy)pyrimidin-2-yl]-N,N′-dimethyl-N-[4-(trifluoromethoxy)phenyl]urea]: the mortality at 50 µg/cm2 in assay [1] (setting [3]) and in assay [2] was 100% throughout.

Consider `CN(C(=O)Nc1cc(OCC(F)(F)F)nc(OCC(F)(F)F)n1)c1ccc(Br)nc1` [Compound 109], for which the mortality at 50 µg/cm2 in assay [1] (setting [3]) amounted to 25%; in assay [2], 88%.
